Test results: patent US20140249143A1, “Compounds And Methods For Enhancing Innate Immune Responses” (GlaxoSmithKline LLC, priority 2011, published 2014)

Tests used:
[1] = system: reconstructed human epidermis (RHE) keratinocytes; assay: JAK/STAT induction in reconstructed human epidermis (western blot, real-time PCR); format: cell-based; settings: 10 μM (IFN-alpha 100 U/mL), 6 and 72 hrs
Protocol: First, reconstructed human epidermis (“RHE”) consisting of cultured human keratinocyte cells were incubated in triplicate with media containing either the media alone, media+0.1% DMSO, media containing 10 μM of several putative JAK/STAT activator compounds described herein in Tables 1 and 2 (Example 1, Example 2, Example 11, and compound no. 89 (as a negative control)), or media containing 100 U/mL of a positive control Interferon-alpha (IFN-alpha) recombinant protein at 37° C. in a humidified atmosphere containing 5% CO2, for 6 and 72 hours.
At the end of the incubation period, the RHE tissues were cut into two sections. One section was ¼ of the total size and the second section was […].

[2] = system: ISG56 (Interferon-Stimulated Gene 56) promoter ISRE; assay: ISG56 luciferase reporter assay in HEK 293 cells; format: cell-based; settings: Homo sapiens, HEK293; HEK 293 reporter, 24 hours; 100% = small molecule control test compound; read-out: ISG56 (Average Max Response) %
Protocol: Compounds of the present invention were tested against a HEK (Human Embryonic Kidney) 293 cell line that was stably transfected with a firefly luciferase reporter gene under the control of the ISG56 (Interferon-Stimulated Gene 56) promoter ISRE (Interferon-Stimulated Response Element). While the ISRE is in the opposite orientation of the wild type promoter, literature^1 cites that the response elements are pallindromic and function properly in either orientation. ^1Reich, N., Evans, B., Levy, D., Fahey, D., Knight, E., Damell, J. E. (1987) Interferon-induced transcription of a gene encoding a 15-kDa protein depends on an upstream enhancer element. See, Proc. Natl. Acad. Sci. 84, (6394-6398).
In preparation for the assay, test compounds were serially diluted 3-fold in DMSO from a typical top concentration of 5 mM and plated at 0.2 μL in a 384-well, polystyrene, tissue culture treated plate with lid (Greiner Bio-One North America, Inc., Monroe, N.C.) to generate 11-point dose response curves in the assay. Low control wells (0% response) contained 0.2 μL of DMSO alone, and high control wells (100% response) contained 0.2 μL of a small molecule control test compound.
Frozen stocks of the transfected HEK 293 cells were washed and recovered in DMEM I Ham's F-12 media (Invitrogen Corporation, Carlsbad, Calif.) supplemented with 10% v/v qualified Australian fetal bovine serum (FBS) (Invitrogen Corporation, Carlsbad, Calif.), 1× GlutaMAX™ (Invitrogen Corporation, Carlsbad, Calif.), 1×MEM non-essential amino acids (NEAA) (Invitrogen Corporation, Carlsbad, Calif.) and 500 μg/ml Geneticin® (Invitrogen Corporation, Carlsbad, Calif.). The cells were diluted to 500,000 cells/mL in the supplemented DMEM/Ham's F-12 media, and 20 μL of the cell suspension were added to each well of the previously prepared 384-well compound plate, resulting in 10,000 cells/well. The plate, with lid, were placed in a 37° C., 5% CO2 humidified incubator for 24 hours.
Following incubation, the plates were removed and placed on the bench top without lids to equilibrate to room temperature for 30 minutes. Steady-Glo® (Promega Corporation, Madison, Wis.) was prepared according to the manufacturer's instructions, and 10 μL were added to each plate well. After a twenty minute incubation at room temperature, luminescence was read on a ViewLux™ (PerkinElmer Inc., Waltham, Mass.).
The data for dose responses were plotted as % activation versus compound concentration following normalization using the formula 100*((U−C1)/(C2−C1)), where U was the unknown value, C1 was the average of the low (0% response) control wells and C2 was the average of the high (100% response) control wells. Curve fitting was performed with the equation y=A+((B−A)/(1+(10^x/10^C)^D)), where A was the minimum response, B was the maximum response, C was the log(EC50) and D was the Hill slope. The results for each test compound were recorded as pEC50 values (—C in the above equation) and as max response values at a given concentration.

ISGs and cytokines mRNA = assay: Dose response of ISG induction in vivo; set-up: species or system CD-1 mice; settings: 0, 200, 600, 1000 mg/kg oral gavage, 24 h, blood and tissues
Protocol: Naive male CD-1 mice were obtained from Charles Rivers Laboratories (Wilmington, Mass.) and administered with Example 11 in a dose response (0, 200, 600, and 1000 mg/kg; three mice per dose group) by oral gavage. The dose of 200 mg/kg was in 0.5% HPMC/0.1% Tween 80 whereas the rest of doses were in 30% solutol/70% PEG400. At 24 h, the blood and tissues were collected and processed as described above. The gene expressions of various ISGs and cytokines were monitored by real time RT-PCR (see above for the details).

[3] = system: HCV genotype 1b subgenomic replicon; assay: Anti-Hepatitis C replicon assay, genotype 1b (luciferase); format: cell-based; settings: Hepatitis C virus; luciferase activity measured 48 hours later; read-out: HCV Genotype 1B Replicon pEC50 (converted)
Protocol: (§1) Compounds were assayed for activity against HCV using the genotype 1a and 1b subgenomic replicon model systems. Stable cell lines bearing the genotype 1a and 1b replicons were used for screening of compounds. Both replicons are bicistonic and contain the firefly luciferase gene. The ET cell line is stably transfected with RNA transcripts harboring a I389luc-ubi-neo/NS3-3′/ET replicon with firefly luciferase-ubiquitin-neomycin phosphotransferase fusion protein and EMCV-IRES driven NS3-5B polyprotein containing the cell culture adaptive mutations (E1202G; T1280I; K1846T) (Krieger at al, 2001 and unpublished). The genotype 1a replicon is a stable cell line licensed from Apath LLC, modified to contain the firefly luciferase gene. The cells were grown in DMEM, supplemented with 10% fetal calf serum, 2 mM Glutamine, Penicillin (100 IU/mL)/Streptomycin (100 μg/mL), 1× nonessential amino acids, and 250-500 μg/mL G418 (“Geneticin”). They were all available through Life Technologies (Bethesda, Md.). The cells were plated at 0.5×10^4 cells/well in 384 well plates containing compounds. The final concentration of compounds ranged between 0.03 pM to 50 μm and the final DMSO concentration of 0.5-1%.
(§2) Luciferase activity was measured 48 hours later by adding a Steady glo (Promega, Madison, Wis.). Percent inhibition of replication data was plotted relative to no compound control. Under the same condition, cytotoxicity of the compounds was determined using cell titer glo (Promega, Madison, Wis.). IC50s were determined from a 10 point dose response curve using 3-4-fold serial dilution for each compound, which spans a concentration range>1000 fold. BioAssay determines the level of inhibition for each compound by normalizing cross-talk corrected plate values against the negative (low or background, cells with no compound present) and positive (high DMSO, no cells) controls to determine Percent Inhibition:
(§3) These normalized values are exported to IC50 where they are plotted against the molar compound concentrations using the standard four parameter logistic equation: […]

[4] = system: HCV genotype 1a subgenomic replicon; assay: Anti-Hepatitis C replicon assay, genotype 1a (luciferase); format: cell-based; settings: Hepatitis C virus; luciferase activity measured 48 hours later; read-out: HCV Genotype 1A Replicon pEC50 (converted)
Protocol: as §1, §2, §3

JAK/STAT = JAK/STAT activator assay; format: cell-based
human JAK1 = target: T1, human JAK1 (Homo sapiens, UniProt P23458); assay: JAK1 reconstitution in U4A and 2fGH cells (phosphor-STAT1 western blot, Taqman mRNA); format: cell-based; settings: Example 1 10 μM, IFNα 100 U/ml
T1 construct: expressed in transfected cells; host or cells: U4A cells (JAK1-deficient derivative of the human fibroblast line 2fGH), transduced with a baculovirus mammalian expression system
Protocol: 2fGH and U4A cells were obtained from the Cleveland Clinic. 2fGH is a human fibroblast cell line and U4A cell line is a derivative 2fGH harboring a defect in JAK1 expression (Muller, et al., Nature 366, 129-135 (1993)). Green fluoroscent protein (GFP) or human JAK1 was transduced in U4A cells by baculovirus mammalian expression system. After 24 hours post transduction, the cells were treated with DMSO, Example 1 (10 μM), IFNα (100 U/ml), IFNβ (100 U/ml), or IFNγ (100 U/ml). Untransduced U4A cells and 2fGH cells were included as controls for 6 or 18 hours. The cells were harvested at indicated time points and used for detecting phosphor-STAT1 by western blot (FIG. 10, panel A) or for mRNA analysis by Taqman quantitation (FIG. 10, panel B).
(§4) The total cell lysates were analyzed on a 4-20% SDS-PAGE gradient gel and followed by immunoblotting using anti-phopho STAT1 antibody (Cell Signaling). The level of actin was monitored as a loading control. The bands were visualized by the alkaline phosphatase activity conjugated with the secondary antibody (Promega) using ProtoBlot II AP system (Promega).
Gene expression was measured using TaqMan Fast Universal PCR Master Mix (Applied Biosystems) and gene specific probes and murine primers in HT7900 FAST System (Invitrogen). As housekeeping genes, actin and GAPDH were used for normalization. Data was calculated by the ΔΔCt method and fold change determined compared to non-treated control samples.

[5] = system: respiratory syncytial virus (RSV); assay: RSV plaque assay on HEp-2 cells; format: cell-based; settings: 1000 U/ml
Protocol: A broad spectrum of antiviral activity of Example 1 was accessed by testing it for potency against other viruses. (See FIG. 8). […] RSV (long form) was inoculated on the layer of HEp-2 cells at multiplicity of infection of <0.001. After 4 hour post infection, the inoculum was replaced with 0.3% agarose containing MEM and various concentration of Example 1 or IFNα. The cells were incubated for up to 5-6 days until the plaques were visible. The cells were then fixed with 3% formaldehyde and stained with neutral red for visualization.

[6] = system: interferon stimulated genes (ISGs); assay: Expression of interferon stimulated genes in HCV replicon cells (real time RT-PCR); format: cell-based; settings: Example 1 2 μM, IFNα 100 U/ml
Source text: The up-regulation of interferon stimulated genes upon treatment with Example 1 was monitored by quantitative real time RT-PCR using specific primers for each gene, as shown in FIG. 3. […] Total RNA was isolated using RNeasy 96 kit (Qiagen) and converted to cDNA using High Capacity cDNA reverse transcription kit (Applied Biosystems). For real time PCR, the cDNA was used for PCR reactions using TaqMan Fast Universal PCR master mix (Applied Biosystems) and specific primers (Applied Biosystems). As housekeeping genes, actin and GAPDH were used for normalization. Data was calculated by the ΔΔCt method and fold change determined compared to DMSO-treated control samples.

STAT1 phosphorylation = STAT1 phosphorylation immunoblot in HCV replicon cells; format: cell-based; settings: IFNα 100 U/ml
Protocol: as §4, with “IFNα (100 U/ml) and DMSO were included as controls. The total” for “The total”, “II AP System™ (Promega).” for “II AP system (Promega).”

T1 sequence (P23458 whole entry): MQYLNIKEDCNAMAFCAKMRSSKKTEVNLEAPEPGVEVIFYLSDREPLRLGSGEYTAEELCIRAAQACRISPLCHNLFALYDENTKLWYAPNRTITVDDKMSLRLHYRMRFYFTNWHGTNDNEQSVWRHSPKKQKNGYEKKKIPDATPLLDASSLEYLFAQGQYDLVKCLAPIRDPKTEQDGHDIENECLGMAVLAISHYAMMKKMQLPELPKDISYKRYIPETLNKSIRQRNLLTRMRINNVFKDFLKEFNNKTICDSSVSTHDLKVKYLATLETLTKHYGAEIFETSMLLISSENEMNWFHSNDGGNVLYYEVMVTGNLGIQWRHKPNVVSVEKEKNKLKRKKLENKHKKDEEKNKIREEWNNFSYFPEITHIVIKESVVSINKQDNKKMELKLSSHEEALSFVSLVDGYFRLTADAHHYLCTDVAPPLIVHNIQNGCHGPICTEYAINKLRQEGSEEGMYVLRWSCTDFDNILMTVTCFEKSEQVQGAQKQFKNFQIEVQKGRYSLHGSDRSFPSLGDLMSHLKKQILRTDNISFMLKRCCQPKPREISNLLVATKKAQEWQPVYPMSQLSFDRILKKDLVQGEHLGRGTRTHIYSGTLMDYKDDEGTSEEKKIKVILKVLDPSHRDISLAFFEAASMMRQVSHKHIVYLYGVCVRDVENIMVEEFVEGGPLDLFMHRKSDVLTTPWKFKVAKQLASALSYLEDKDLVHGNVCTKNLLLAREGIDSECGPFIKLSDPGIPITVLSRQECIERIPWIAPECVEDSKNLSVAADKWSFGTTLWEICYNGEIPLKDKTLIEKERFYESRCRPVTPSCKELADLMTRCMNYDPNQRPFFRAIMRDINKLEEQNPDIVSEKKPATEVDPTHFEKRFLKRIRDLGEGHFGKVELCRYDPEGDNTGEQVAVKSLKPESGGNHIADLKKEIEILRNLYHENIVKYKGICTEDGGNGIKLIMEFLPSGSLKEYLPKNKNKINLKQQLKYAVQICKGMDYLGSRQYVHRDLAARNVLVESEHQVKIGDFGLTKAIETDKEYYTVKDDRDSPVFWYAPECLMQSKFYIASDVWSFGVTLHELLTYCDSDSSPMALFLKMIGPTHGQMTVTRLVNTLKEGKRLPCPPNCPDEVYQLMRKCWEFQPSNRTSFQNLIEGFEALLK

| Molecule | Stat1 phosphorylation (western blot) [1] | Emax [2] [%] | induction of ISG in dose response (ISGs and cytokines mRNA) | EC50 [3] [nM] | EC50 [4] [nM] | result in the JAK/STAT activator assay (JAK/STAT) | activation of STAT1 in U4A cells transduced with JAK1 (human JAK1) | p-STAT1 in U4A cells (JAK1 deficient) transduced with GFP (human JAK1) | RSV plaques [5] | time of maximum induction of ISGs [6] [h] | STAT1 phosphorylation (STAT1 phosphorylation; Example 1 2 uM, 1 h, 6 h, 24 h) | time at which phosphorylated STAT1 peaked (STAT1 phosphorylation) [h] |
| --- | --- | --- | --- | --- | --- | --- | --- | --- | --- | --- | --- | --- |
| FC(F)(F)c1nc(C(F)(F)F)c2ccc3nc(-c4nnco4)cn3c2n1 [Compound 11, 4-(1,3,4-oxadiazol-2-yl)-10,12-bis(trifluoromethyl)-2,5,11,13-tetraazatricyclo[7.4.0.0^2,^6]trideca-1(9),3,5,7,10,12-hexaene] | Stat1 phosphorylation | 293 | correlated with given doses in all tissues | 794 | 251 |  |  |  |  |  |  |  |
| FC(F)(F)c1cc(C(F)(F)F)c2ccc3nc(-c4nncs4)cn3c2n1 [Compound 89] | did not show phosphorylation of Stat1 |  |  |  |  | negative |  |  |  |  |  |  |
| IFNα | Stat1 phosphorylation |  |  |  |  |  | activation of STAT1 was observed | not present | significantly reduced the number and size of the plaques | 4 | induced STAT1 phosphorylation | 1 |
